Key:
[1] = system: CD4+ T cells within T cell cultures; assay: Flow cytometry of CD4+ T cells within isolated CD3+ T cell cultures (anti-CD3/anti-CD28); type: cell-based, human; conditions: anti-CD3/anti-CD28, 72 h, MFI, Fig. 1b (IK14004), Fig. 1e (IK14000)
Protocol: CD3^+ T cells were isolated from PBMCs by negative selection using immune-magnetic separation (Stem cell kits), resuspended in complete medium as used for PBMCs at 0.5 × 10^6/mL and plated at a density of 5 × 10^4 per well (100 µL) in 96-well, flat bottom culture plates. CD4^+ and CD8^+ T cell populations were isolated by immunomagnetic separation and resuspended in RPMI-10 at 0.5 × 10^6/mL with a plating density of 0.5 × 10^5 per well. Either the lipidic peptide, IK14004, or IK14000 ([…]) was added to wells at a final volume of 50 µL per well, together with anti-CD3 anti-CD28 coated Dynabeads (ThermoFisher) at a 4:1 cell:bead ratio (1.25 × 10^4/well, 50 µL volume) and cells cultured for 72 h at 37 °C and 5% CO2. […]
For flow cytometry and ELISA experiments, data from IK14004 and vehicle groups were analysed using parametric statistical procedures. […]

[2] = system: CD8+ T cells within PBMC cultures; assay: Intracellular IFN-γ in CD8+ T cells within PBMC cultures (flow cytometry); type: cell-based, human; conditions: anti-CD3, 24 h, MFI, n = 4, Fig. 5d
Protocol: PBMCs were resuspended in RPMI-10 (RPMI-1640; ThermoFisher) supplemented with 10% heat inactivated Foetal Bovine Serum (LabTech), 100 U/mL penicillin, 100 µg/mL streptomycin (ThermoFisher), 2 mM L-glutamine (ThermoFisher), and 50 µM β-mercaptoethanol (ThermoFisher) at 1 × 10^6 cells/mL and plated at a density of 1 × 10^5 per well (100 µL) in 96-well, flat-bottom culture plates. PBMCs were stimulated with 1 µg/mL of soluble anti-CD3 (BioLegend). The lipidic peptide, IK14004, and IK14000, i.e., […] minus conjugation to [{2}Adod]4, were solubilised as a 1 mM stock solution in sterile milliQ water (Lonza) and added to wells at a final volume of 50 µL per well together with soluble anti-CD3 (1 µg/mL final, 50 µL per well) (Biolegend). To test the effect of peptides, cells were cultured for 24–72 h at 37 °C and 5% CO2. Vehicle controls in peptide-based experiments comprised 0.13% sterile milliQ water in culture medium whereas 0.1% DMSO in culture medium was used as vehicle control for comparison with the Lck inhibitor, A-770041, in the absence of peptides. […]

c-Src = conditions: cited from earlier work
Source text: Given the role of NFAT proteins in regulating transcription of IFN-γ[46],[47], suppression of NFAT attenuates IFN-γ-activated endogenous IL-12p40 mRNA expression. In addition, IFN-γ production in DCs is dependent on a Janus kinase (JAK) family member, Tyk2, that signals via signal transducers and activators of transcription (STATs)[49] and within DCs, c-Src contributes to c ... || Given the role of Lck in upstream signalling upon TCR activation[34],[35] which leads to IL-2 production[10],[11], we tested the effect of a known Lck inhibitor, A-770041 on IL-2 expression within supernatants from stimulated T cell cultures after 72 h.

RSKAKNPLYR [IK14000]
CD25 expression in CD4+ T cells [1]: decrease in CD25 expression in CD4+ T cells at higher concentrations | intracellular expression of IFN-γ in CD8+ T cells [2]: unchanged | c-Src activity, earlier report (c-Src): inhibits c-Src activity
